# Assay results from patent publication US6737383B1, “Herbicidal oxadiazolidines” (priority 1999, dated 2004).
# Tests used:
# certain weeds = assay: Test F overall statement on synergism with rimsulfuron (Colby's equation); type: in vivo; settings: combinations with rimsulfuron, preemergence
# Method: Abutilon theophrasti (ABUTH), Chenopodium album (CHEAL), Amaranthus rudis (AMATA), Setaria […]), Panicum dichotomiflorum (PANDI), and Digitaria sanguinalis (DIGSA) were grown from seed in pots of an artificial potting mixture in a greenhouse. Compounds of the present invention were applied at 70 and 105 g ai/ha preemergence. Rimsulfuron was applied at 8.8 and 17.5 g ai/ha. Mixtures of the compounds of the present invention and rimsulfuron were also applied. Following application, the plants were maintained by watering as needed. A fertilizer solution of Peter's 20-20-20 (10 pounds/5 gallons of water) plus Sprint 330, a Iron Chelate micronutrient, (113.5 grams/5 gallons of water) was injected into the water with an Anderson fertilizer injection system to provide approximately 219 ppm of nitrogen with each watering. Artificial lighting was used to supplement natural light to produce a 14 hour photoperiod and: an additional one hour light period was used between 1:00 am to 2:00 am for a night interruption. Greenhouse temperatures were targeted for 27° C. in the day and 21° C. at night. At 21 days after treatment, all plants were evaluated for injury as compared to control plants that were sprayed only with non-phytotoxic solvent. […] Colby's equation was used to calculate the expected additive herbicidal effect of the mixtures of Compound 21 and the mixture partners listed above. […]
# common ragweed = assay: Test C postemergence common ragweed; type: in vivo, Ambrosia elatior; settings: 0 to 100 scale, 0 no effect, 100 complete control
# Method: (§1) Compounds evaluated in this test were formulated in a non-phytotoxic solvent mixture which included a surfactant and applied to plants that were grown for various periods of time before treatment (postemergence application). A mixture of sandy loam soil and greenhouse potting mix in a 60:40 ratio was used for the postemergence test.
# (§2) Plantings of these crops and weed species were adjusted to produce plants of appropriate size for the postemergence test. All plant species were grown using normal greenhouse practices. Crop and weed species include arrowleaf sida (Sida rhombifolia), barnyardgrass (Echinochloa crus-galli), cocklebur (Xanthium strumarium), common ragweed (Ambrosia elatior), corn (Zea mays), cotton (Gossypium hirsutum), eastern black nightshade (Solanum ptycanthum), fall panicum (Panicum dichotomiflorum), field bindweed (Convolvulus arvensis), giant foxtail (Setaria faberii), hairy beggarticks (Bidens pilosa), ivyleaf morningglory (Ipomoea hederacea), johnsongrass (Sorghum halepense), ladysthumb smartweed (Polygonum persicaria), lambsquarters (Chenopodium album), large crabgrass (Digitaria sanguinalis), purple nutsedge (Cyperus rotundus), redroot pigweed (Amaranthus retroflexus), soybean (Glycine max), surinam grass (Brachiaria decumbens), velvetleaf (Abutilon theophrasti) and wild poinsettia (Euphorbia heterophylla).
# (§3) Treated plants and untreated controls were maintained in a greenhouse for approximately 14, to 21 days, after which all treated plants were compared to untreated controls and visually evaluated. Plant response ratings, summarized in Table C, were based upon a 0 to 100 scale where 0 was no effect and 100 was complete control. A dash response (−) means no test result.
# field bindweed = assay: Test C postemergence field bindweed; type: in vivo, Convolvulus arvensis; settings: 0 to 100 scale, 0 no effect, 100 complete control
# Method: as §1, §2, §3
# Amaranthus rudis (AMATA) = assay: Test F preemergence, alone and in mixture with rimsulfuron, AMATA; type: in vivo; settings: 21 days after treatment, 0-100 scale
# Method: Abutilon theophrasti (ABUTH), Chenopodium album (CHEAL), Amaranthus rudis (AMATA), Setaria faberii (SETFA), Panicum dichotomiflorum (PANDI), and Digitaria sanguinalis (DIGSA) were grown from seed in pots of an artificial potting mixture in a greenhouse. Compounds of the present invention were applied at 70 and 105 g ai/ha preemergence. Rimsulfuron was applied at 8.8 and 17.5 g ai/ha. Mixtures of the compounds of the present invention and rimsulfuron were also applied.
# Following application, the plants were maintained by watering as needed. A fertilizer solution of Peter's 20-20-20 (10 pounds/5 gallons of water) plus Sprint 330, a Iron Chelate micronutrient, (113.5 grams/5 gallons of water) was injected into the water with an Anderson fertilizer injection system to provide approximately 219 ppm of nitrogen with each watering. Artificial lighting was used to supplement natural light to produce a 14 hour photoperiod and: an additional one hour light period was used between 1:00 am to 2:00 am for a night interruption. Greenhouse temperatures were targeted for 27° C. in the day and 21° C. at night. At 21 days after treatment, all plants were evaluated for injury as compared to control plants that were sprayed only with non-phytotoxic solvent.
# Colby's equation was used to calculate the expected additive herbicidal effect of the mixtures of Compound 21 and the mixture partners listed above. […]
# Green foxtail = assay: Test D green foxtail; type: in vivo
# Outline: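 Seeds were sown in greenhouse pots, one species per pot or compartment. Compounds were in a non-phytotoxic solvent mixture with surfactant; preemergence applications went on the sandy loam surface within one day of planting. Injury was rated visually after 14 to 21 days, 0 (none) to 100 (complete control).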
# giant foxtail = assay: Test C postemergence giant foxtail; type: in vivo, Setaria faberii; settings: 0 to 100 scale, 0 no effect, 100 complete control
# Outline: (§4)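 Soil: sandy loam/potting mix 60:40. Treatment: postemergence, solvent + surfactant formulation. Readout: visual control score 0–100 vs untreated at ~14–21 days.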
# soybean = assay: Test C postemergence soybean; type: in vivo, Glycine max; settings: 0 to 100 scale, 0 no effect, 100 complete control
# Outline: as §4
# lambsquarters = assay: Test C postemergence lambsquarters; type: in vivo, Chenopodium album; settings: 0 to 100 scale, 0 no effect, 100 complete control
# Method: as §1, §2, §3
# arrowleaf sida = assay: Test C postemergence arrowleaf sida; type: in vivo, Sida rhombifolia; settings: 0 to 100 scale, 0 no effect, 100 complete control
# Outline: as §4
# [1] = Rate 64 g/ha, Preemergence; 0 to 100 scale, 0 no injury, 100 complete control
# [2] = Rate 125 g/ha, Preemergence; 0 to 100 scale, 0 no injury, 100 complete control
structure (smiles),measurement,setting,value
CC(C)N(C(=O)n1oc(=O)n(C(C)C)c1=O)c1ccccc1 [Compound 113],Weed control of combination with rimsulfuron compared with expectation from Colby's equation,certain weeds,better control of certain weeds than expected
same,Plant response rating Common ragweed,common ragweed; Rate 140 g/ha,5
same,Plant response rating Common ragweed,common ragweed; Rate 280 g/ha,5
same,Plant response rating Common ragweed,common ragweed; Rate 1120 g/ha,20
same,Plant response rating Field bindweed,field bindweed; Rate 140 g/ha,0
same,Plant response rating Field bindweed,field bindweed; Rate 280 g/ha,0
same,Plant response rating Field bindweed,field bindweed; Rate 560 g/ha,50
same,Plant response rating Field bindweed,field bindweed; Rate 1120 g/ha,50
same,AMATA Observed,"Amaranthus rudis (AMATA); Alone: Cmpd. rate 70, Rimsulfuron 0",35%
same,AMATA Observed,"Amaranthus rudis (AMATA); Alone: Cmpd. rate 105, Rimsulfuron 0",25%
same,"Plant response rating, Green foxtail","Green foxtail; Preemergence; Rate 16 g/ha; 0 to 100 scale, 0 no injury, 100 complete control",80
same,"Plant response rating, Green foxtail","Green foxtail; Preemergence; Rate 32 g/ha; 0 to 100 scale, 0 no injury, 100 complete control",98
same,"Plant response rating, Green foxtail","Green foxtail; Rate 16 g/ha; Preemergence; 0 to 100 scale, 0 no injury, 100 complete control",80
same,"Plant response rating, Green foxtail","Green foxtail; Rate 32 g/ha; Preemergence; 0 to 100 scale, 0 no injury, 100 complete control",70
same,Green foxtail plant response rating,Green foxtail; [1],100
same,"Plant response rating, Green foxtail",Green foxtail; [1],100
same,Green foxtail plant response rating,Green foxtail; [2],100
same,"Plant response rating, Green foxtail",Green foxtail; [2],100
same,"Plant response rating, Giant foxtail",giant foxtail; Rate 140 g/ha,20
same,"Plant response rating, Giant foxtail",giant foxtail; Rate 280 g/ha,70
same,"Plant response rating, Giant foxtail",giant foxtail; Rate 560 g/ha,80
same,"Plant response rating, Giant foxtail",giant foxtail; Rate 1120 g/ha,80
same,"Plant response rating, Soybean",soybean; Rate 140 g/ha,40
same,"Plant response rating, Soybean",soybean; Rate 280 g/ha,70
same,"Plant response rating, Soybean",soybean; Rate 560 g/ha,85
same,"Plant response rating, Soybean",soybean; Rate 1120 g/ha,85
same,Plant response rating Lambsquarters,lambsquarters; Rate 140 g/ha,0
same,Plant response rating Lambsquarters,lambsquarters; Rate 560 g/ha,20
same,Plant response rating Lambsquarters,lambsquarters; Rate 1120 g/ha,50
same,Plant response rating Arrowleaf sida,arrowleaf sida; Rate 140 g/ha,30
same,Plant response rating Arrowleaf sida,arrowleaf sida; Rate 280 g/ha,40
same,Plant response rating Arrowleaf sida,arrowleaf sida; Rate 560 g/ha,70
same,Plant response rating Arrowleaf sida,arrowleaf sida; Rate 1120 g/ha,95
